The subject of this experiment is P388. Nature of the experiment: Antitumor activity against mouse P388 cells. Type of experiment: functional. The conditions noted are these: read-out: ED50 (the source's name).
For the molecule `C[C@H]1[C@@H](O)C2(Oc3cc4c(c5c3[C@H](C[C@H]5O)[C@@H]2C)CC[C@H]2Cc3nc5c(nc3C[C@]42C)C[C@@H]2CC[C@H]3C4=C[C@@H]6O[C@@]7(C[C@]6(O)[C@@]4(C)[C@H](O)C[C@@H]3[C@@]2(C)C5)O[C@](C)(CO)C[C@H]7O)OC1(C)C` (some centres not stated) [CEPHALOSTATIN 5], the EC50 worked out at 42.5 nM.
The same measure for `C[C@H]1[C@H]2C[C@@H](O)c3c4c(cc(c32)OC12OC(C)(C)C[C@H]2O)[C@@]1(C)Cc2nc3c(nc2C[C@@H]1CC4)C[C@@]1(C)[C@@H](CC[C@H]2C4=C[C@@H]5O[C@@]6(C[C@]5(O)[C@@]4(C)[C@H](O)C[C@@H]21)O[C@](C)(CO)C[C@H]6O)C3` (some centres not stated) [CEPHALOSTATIN 6]: 2.3 nM.
As to `CO[C@H]1c2nc3c(nc2C[C@@H]2CC[C@H]4C5=C[C@@H]6O[C@]7(O[C@](C)(CO)C[C@H]7O)[C@@H](C)[C@]6(O)[C@@]5(C)[C@H](O)C[C@@H]4[C@]21C)C[C@@]1(C)[C@@H](CC[C@H]2C4=CC[C@@H]5[C@H](C)[C@@]6(OC[C@]45C(=O)C[C@@]21O)OC(C)(C)C[C@H]6O)C3` [CEPHALOSTATIN 10], the EC50 is 3.2 nM.
The same measure for `CO[C@H]1c2nc3c(nc2C[C@@H]2CC[C@H]4C5=CC[C@@H]6[C@@H](C)[C@]7(OC[C@]56C(=O)C[C@@H]4[C@]21C)OC(C)(C)C[C@H]7O)C[C@@]1(C)[C@@H](CC[C@H]2C4=C[C@@H]5O[C@]6(O[C@](C)(CO)C[C@H]6O)[C@@H](C)[C@]5(O)[C@@]4(C)[C@H](O)C[C@@H]21)C3` [CEPHALOSTATIN 11]: 2.7 nM; for `C[C@@H]1[C@]2(O[C@H]3C=C4[C@@H]5CC[C@H]6Cc7nc8c(nc7C[C@]6(C)[C@H]5C[C@@H](O)[C@]4(C)[C@]31O)C[C@@H]1CC[C@H]3C4=C[C@@H]5O[C@]6(O[C@](C)(CO)C[C@H]6O)[C@@H](C)[C@]5(O)[C@@]4(C)[C@H](O)C[C@@H]3[C@@]1(C)C8)O[C@](C)(CO)C[C@H]2O` [CEPHALOSTATIN 12]: 76.2 nM.
The same measure for `C[C@@H]1[C@]2(O[C@H]3C=C4[C@@H]5CC[C@H]6Cc7nc8c(nc7C[C@]6(C)[C@H]5C[C@@H](O)[C@]4(C)[C@]31O)C[C@@H]1CC[C@H]3C4=C[C@@H]5O[C@]6(O[C@](C)(CO)C[C@H]6O)[C@@H](C)[C@]5(O)[C@@]4(C)[C@H](O)C[C@@H]3[C@@]1(C)[C@H]8O)O[C@](C)(CO)C[C@H]2O` [CEPHALOSTATIN 13]: 47.9 nM.
The same measure for `C[C@@H]1[C@H]2C[C@@H]3O[C@@]34[C@]3(O)CC[C@H]5Cc6nc7c(nc6C[C@]5(C)C3=CC(=O)[C@]24CO[C@]12OC(C)(C)C[C@H]2O)C[C@@H]1CC[C@H]2C3=C[C@@H]4O[C@]5(O[C@](C)(CO)C[C@H]5O)[C@@H](C)[C@]4(O)[C@@]3(C)[C@H](O)C[C@@H]2[C@@]1(C)C7` [CEPHALOSTATIN 14]: 4.4 nM; for `C[C@@H]1[C@H]2C[C@@H]3O[C@@]34[C@]3(O)CC[C@H]5Cc6nc7c(nc6C[C@]5(C)C3=CC(=O)[C@]24CO[C@]12OC(C)(C)[C@@H](C)[C@H]2O)C[C@@H]1CC[C@H]2C3=C[C@@H]4O[C@]5(O[C@](C)(CO)C[C@H]5O)[C@@H](C)[C@]4(O)[C@@]3(C)[C@H](O)C[C@@H]2[C@@]1(C)C7` [CEPHALOSTATIN 15]: 26.2 nM.
In the case of `C[C@@H]1[C@H]2CC=C3[C@@H]4CC[C@H]5Cc6nc7c(nc6C[C@]5(C)[C@@]4(O)CC(=O)[C@@]32CO[C@]12OC(C)(C)C[C@H]2O)C[C@@H]1CC[C@H]2C3=C[C@@H]4O[C@@]5(CC[C@](C)(O)CO5)[C@@H](C)[C@]4(O)[C@@]3(C)[C@H](O)C[C@@H]2[C@@]1(C)C7` [CEPHALOSTATIN 16], the EC50 is less than 1.1 nM.
Consider `C[C@@H]1[C@H]2CC=C3[C@H]4CC[C@H]5Cc6nc7c(nc6C[C@]5(C)[C@@]4(O)CC(=O)[C@@]32CO[C@]12OC(C)(C)C[C@H]2O)C[C@@H]1CC[C@H]2C3=C[C@@H]4O[C@]5(O[C@](C)(CO)C[C@H]5O)[C@@H](C)[C@]4(O)[C@@]3(C)[C@H](O)C[C@@H]2[C@@]1(C)C7` [CEPHALOSTATIN 17], for which the EC50 was 4.4 nM.
The same measure for `CO[C@H]1c2nc3c(nc2C[C@@H]2CC[C@H]4C5=C[C@@H]6O[C@]7(O[C@](C)(CO)C[C@H]7O)[C@@H](C)[C@]6(O)[C@@]5(C)[C@H](O)C[C@@H]4[C@]21C)C[C@@]1(C)[C@@H](CC[C@H]2C4=CC[C@@H]5[C@H](C)[C@@]6(OC[C@]45C(=O)C[C@@H]21)OC(C)(C)C[C@H]6O)C3` [CEPHALOSTATIN 18]: 4.6 nM.
The same measure for `CO[C@H]1c2nc3c(nc2C[C@@H]2CC[C@H]4C5=CC[C@@H]6[C@H](C)[C@@]7(OC[C@]56C(=O)C[C@@H]4[C@]21C)OC(C)(C)C[C@H]7O)C[C@@]1(C)[C@@H](CC[C@H]2C4=C[C@@H]5O[C@]6(O[C@](C)(CO)C[C@H]6O)[C@@H](C)[C@]5(O)[C@@]4(C)[C@H](O)C[C@@H]21)C3` [CEPHALOSTATIN 19]: 7.9 nM; for `C[C@@H]1[C@@]2(CC[C@](C)(O)CO2)O[C@H]2C=C3[C@@H]4[C@@H](O)C[C@H]5Cc6nc7c(nc6C[C@]5(C)[C@H]4C[C@@H](O)[C@]3(C)[C@]21O)C[C@@H]1CC[C@@H]2[C@H](CC(=O)[C@]23C[C@@H]2O[C@@]4(CCC(C)(C)O4)[C@@H](C)[C@@H]2[C@]3(C)O)[C@@]1(C)C7` [RITTERAZINE A]: 14.2 nM.
In the case of `C[C@@H]1[C@@]2(CC[C@](C)(O)CO2)O[C@H]2C=C3[C@@H]4[C@@H](O)C[C@H]5Cc6nc7c(nc6C[C@]5(C)[C@H]4C[C@@H](O)[C@]3(C)[C@]21O)C[C@@H]1CC[C@H]2[C@H]3C[C@@H]4O[C@@]5(CCC(C)(C)O5)C[C@@H]4[C@@]3(C)[C@H](O)C[C@@H]2[C@@]1(C)C7` [RITTERAZINE B], the EC50 was 0.17 nM.
As to `C[C@@H]1[C@@]2(CC[C@@](C)(CO)O2)O[C@H]2C=C3[C@@H]4[C@@H](O)C[C@H]5Cc6nc7c(nc6C[C@]5(C)[C@H]4C[C@@H](O)[C@]3(C)[C@]21O)C[C@@H]1CC[C@H]2[C@H]3C[C@@H]4O[C@]5(CCC(C)(C)O5)[C@@H](C)[C@@H]4[C@@]3(C)[C@H](O)C[C@@H]2[C@@]1(C)C7` [RITTERAZINE C], the EC50 came out at 102 nM.
The same measure for `C[C@@H]1[C@@]2(CC[C@](C)(O)CO2)O[C@H]2C=C3[C@@H]4[C@@H](O)C[C@H]5Cc6nc7c(nc6C[C@]5(C)[C@H]4C[C@@H](O)[C@]3(C)[C@]21O)C[C@@H]1CC[C@@H]2[C@H](CC(=O)[C@]23C[C@@H]2O[C@]4(CCC(C)(C)O4)[C@@H](C)[C@@H]2[C@]3(C)O)[C@@]1(C)C7` [RITTERAZINE D]: 17.5 nM.
The same measure for `C[C@@H]1[C@@]2(CC[C@](C)(O)CO2)O[C@H]2C=C3[C@@H]4[C@@H](O)C[C@H]5Cc6nc7c(nc6C[C@]5(C)[C@H]4C[C@@H](O)[C@]3(C)[C@]21O)C[C@@H]1CC[C@@H]2[C@H](CC(=O)[C@]23C[C@@H]2O[C@]4(C[C@H](C)C(C)(C)O4)[C@@H](C)[C@@H]2[C@]3(C)O)[C@@]1(C)C7` [RITTERAZINE E]: 3.8 nM.

For the origin of these results see ChEMBL document CHEMBL1144741, “Review of cytotoxic cephalostatins and ritterazines: isolation and synthesis” (2008).
